In US9517241B2, “Amelioration of intestinal fibrosis and treatment of Crohn's disease” (THE REGENTS OF THE UNIVERSITY OF MICHIGAN, priority 2013, dated 2016):

Legend:
Type in all cases: cell-based, human
[1] = tested on: αSMA protein expression in Ccd-18co cells; assay: TGFβ-stimulated colonic myofibroblasts, αSMA protein expression (Western blot)
Experimental: Colonic human myofibroblast Ccd-18co cells (CRL-1459 from ATCC) were cultured in alpha-MEM (Invitrogen, Carlsbad, Calif.) supplemented with 10% fetal bovine serum and sub-cultured weekly.
Cells were plated at 30-40% confluence. To stimulate a fibrotic phenotype, Ccd-18co cells were serum-starved for 24 h prior to treatment with 1 ng/ml TGFβ or 1 ng/ml TGFβ and increasing doses of CARD-024 (10-1000 nM) for 48 h. Given ethanol was used to dilute CARD-024, ethanol was added to the untreated and TGFβ treated cells to a final concentration of 0.1%. […]
(§1) Total protein was separated by SDS polyacrylamide gel electrophoresis (Bio-Rad,) with prestained protein markers loaded for molecular mass determination (Invitrogen, Carlsbad, Calif.), and transferred to PVDF membranes (Amersham Biosciences, Piscataway, N.J.). Membranes were blocked in 5% milk/TBST solution for 1 h at room temperature or overnight at 4° C. α-smooth muscle actin was detected by incubating the membrane overnight at 4° C. with mouse anti-human monoclonal antibody (Sigma, St. Louis, Mo.) at 1:5000 dilution in 5% milk/TBST.
(§2) pFAK was detected using a rabbit polyclonal phosphospecific antibody against Tyr-397-FAK (Invitrogen) at 1:5000. […] Autoradiographs were scanned and quantitated using ImageJ analysis software (NIH, Bethesda, Md.).

[2] = tested on: fibrogenic genes (col1A1, Fn1, MLCK, ET-1) in Ccd-18co colonic myofibroblasts; assay: TGFβ-stimulated colonic myofibroblasts, fibrogenic gene expression; details: TGFβ1-stimulated Ccd-18co colonic myofibroblasts
Experimental: (§3) Cells were plated at 30-40% confluence. To stimulate a fibrotic phenotype, Ccd-18co cells were serum-starved for 24 h prior to treatment with 1 ng/ml TGFβ or 1 ng/ml TGFβ and increasing doses of CARD-024 (10-1000 nM) for 48 h. Given ethanol was used to dilute CARD-024, ethanol was added to the untreated and TGFβ treated cells to a final concentration of 0.1%. For stiffness experiments, low-passage number Ccd-18co cells were seeded at 1×10^5 cells/ml on 6-well plates containing collagen-coated acrylamide gels corresponding to soft (4.3 kPa, 0.02% bisacrylamide) or stiff (28.1 kPa, 0.16%) matrices. Cells were allowed to attach to the matrix for 4 h and then the gels were transferred to new wells to avoid paracrine signaling from cells attached to the plastic well bottom. […]
(§4) RNA from Ccd-18co cells was extracted using the RNeasy kit (Qiagen, Valencia, Calif.). cDNA was generated by reverse transcription of 1 μg of total RNA using the Superscript First Strand RT kit (Invitrogen, Carlsbad, Calif.). Quantitative real-time PCR (qPCR) was performed for MLCK, IL-1β, PTGS2, ET-1, and GAPDH with the TaqMan gene expression assays (ABI, Foster City, Calif.) on a Bio-Rad iCycler real-time PCR system. […] Gene expression was normalized to GAPDH as the endogenous control, and fold-changes (RQ) relative to untreated controls were calculated using the […] (Livak and Schmittgen, 2001).

[3] = tested on: Ccd-18co colonic myofibroblasts; assay: Matrix stiffness model: cell morphology, cell length and cell count (microscopy); details: for dendrite length: 1000 nM CARD-024, 24 h
Experimental: (§5) Cells were plated at 30-40% confluence. To stimulate a fibrotic phenotype, Ccd-18co cells were serum-starved for 24 h prior to treatment with 1 ng/ml TGFβ or 1 ng/ml TGFβ and increasing doses of CARD-024 (10-1000 nM) for 48 h. Given ethanol was used to dilute CARD-024, ethanol was added to the untreated and TGFβ treated cells to a final concentration of 0.1%. For stiffness experiments, low-passage number Ccd-18co cells were seeded at 1×10^5 cells/ml on 6-well plates containing collagen-coated acrylamide gels corresponding to soft (4.3 kPa, 0.02% bisacrylamide) or stiff (28.1 kPa, 0.16%) matrices. Cells were allowed to attach to the matrix for 4 h and then the gels were transferred to new wells to avoid paracrine signaling from cells attached to the plastic well bottom. For the CARD-024 stiffness experiments, cells were plated as described above and serum-starved overnight prior to treatment with 1000 nM of CARD-024 diluted in 100% ethanol for 24 h. The 1000 nM CARD-024 dose was selected from the results of the TGFβ experiments. Since ethanol was used to dilute CARD-024, ethanol was added to untreated cells to a final concentration of 0.1%.Experiments were performed on early (4 to 7) passage cells. Cultures were routinely assayed for mycoplasma contamination.
Collagen-coated polyacrylamide gels corresponding to physiological stiffnesses of 2.6 kPa to 28.1 kPa were generated using varying ratios of 40% acrylamide to 2% bisacrylamide (Bio-Rad, Hercules, Calif.) (Aplin and Hughes, 1981; Pelham and Wang, 1998). Specifically, an aqueous solution of 0.10% ammonium persulfate (Bio-Rad), 0.15% TEMED (Bio-Rad), 40% acrylamide solution was supplemented with 0.01%, 0.02%, 0.08%, or 0.16% bisacrylamide. The acrylamide gels were polymerized on a NaOH treated, amino-silanated (3-aminopropyltriethoxysilane), and glutaraldehyde treated 25 mm round glass coverslip. […] of each acrylamide/bisacrylamide solution was filter sterilized and pipetted unto a chloro-silanated glass surface treated with dichlorodimethylsilane (DCDMS) and a treated coverslip was inverted onto the acrylamide/biacrylamide solution. The acrylamide matrix was allowed to polymerize for 10 min between the two surfaces and transferred to a 6-well tissue culture plate containing sterile PBS. As determined by a series of stability experiments (data not shown), the acrylamide gels were stable for at least 1 month. […]
Cells were photographed using a Leica (Leica Microsystems Inc., Buffalo Grove, Ill.) DMIRB inverted microscope and photographed with an Olympus DP-30 camera (Center Valley, Pa.). Cell length was determined from photomicrographs using ImageJ (NIH, Bethesda, Md.). Cell count was determined from a minimum of 3 representative photographs of a 100× magnification field. […]

[4] = tested on: Ccd-18co colonic myofibroblasts; assay: Matrix stiffness model: confocal immunofluorescence of focal adhesions (vinculin) and actin stress fibers (phalloidin); details: stiff substrate, 1000 nM CARD-024
Experimental: as §5, with “Since ethanol was used to dilute CARD-024, ethanol was added to untreated cells to a final concentration of 0.1%.Experiments were performed on early (4 to 7) passage cells. Cultures were routinely assayed for mycoplasma contamination.” left out
Expression of activated myofibroblast markers was analyzed by confocal immunofluorescence microscopy using the Olympus FluoView™ FV500/IX system (Olympus America, Center Valley, Pa.) at the University of Michigan Microscopy and Image Analysis Laboratory. […]

[5] = tested on: αSMA protein expression in colonic myofibroblasts; assay: Matrix stiffness model: αSMA protein expression (Western blot); details: high stiffness substrate, 1000 nM CARD-024
Experimental: as §3, with “matrices.” for “matrices. Cells were allowed to attach to the matrix for 4 h and then the gels were transferred to new wells to avoid paracrine signaling from cells attached to the plastic well bottom.”
as §1, §2

[6] = tested on: phosphorylation of focal adhesion kinase (FAK); assay: Matrix stiffness model: pFAK protein expression (Western blot); details: high stiffness matrix, 1000 nM CARD-024
Experimental: as §3
pFAK was detected using a rabbit polyclonal phosphospecific antibody against Tyr-397-FAK (Invitrogen) at 1:5000. […] After washing, the membranes were incubated with the appropriate secondary antibody (anti-mouse IgG+HRP or anti-rabbit IgG+HRP, Amersham, Piscataway, N.J.) for 1 h at room temperature and the signal was detected by the Pierce detection system (Pierce, Rockford, Ill.). Autoradiographs were scanned and quantitated using ImageJ analysis software (NIH, Bethesda, Md.).

[7] = tested on: MLCK gene expression; assay: Matrix stiffness model: QRT-PCR of MLCK; details: high stiffness substrate, 1000 nM CARD-024
Experimental: as §3, §4

[8] = tested on: ET-1 gene expression; assay: Matrix stiffness model: QRT-PCR of ET-1; details: high stiffness conditions, 1000 nM CARD-024
Experimental: as §3, §4

[9] = tested on: PTGS2 (which encodes the COX-2 enzyme); assay: Matrix stiffness model: QRT-PCR of PTGS2; details: low and high stiffness, 1000 nM CARD-024
Experimental: as §3, §4

[10] = tested on: IL-1β expression; assay: Matrix stiffness model: QRT-PCR of IL-1β; details: 1000 nM CARD-024, relative to untreated/low stiffness
Experimental: as §3, §4

[11] = tested on: colA1 gene expression; assay: Matrix stiffness model: expression of colA1; details: CARD-024 treatment
Experimental: as §5
(§6) Prior to seeding with colonic myofibroblasts, the acrylamide gels were collagen-coated. […]

[12] = tested on: Fn-1 gene expression; assay: Matrix stiffness model: expression of Fn-1; details: CARD-024 treatment
Experimental: as §5, §6

C=C1/C(=C\C=C2/CCC[C@]3(C)[C@@H]([C@H](C)CC[C@@H](CC)C(C)C)CC[C@@H]23)C[C@@H](O)C[C@@H]1O [CARD-024, (1S,3R)-(5Z,7E)-9,10-Secositosta-5,7,10(19)-triene-1,3-diol]
αSMA protein expression, dose response ([1]; Ccd-18co cells stimulated with TGFβ, 10-1000 nM CARD-024): attenuated αSMA protein expression in a dose-responsive manner
attenuation of αSMA protein expression ([1]; Ccd-18co cells, 1 ng/ml TGFβ, 1000 nM CARD-024, 48 h, normalized to GAPDH, p=0.012): 2 fold
fibrogenic gene expression [2]: minimal impact on fibrogenic gene expression
dendrite length ([3]; high stiffness (28.1 kPa) matrix): 145 μm
cell morphology ([3]; high stiffness substrate, 1000 nM CARD-024): repressed the effects of matrix stiffness on cell morphology
dendrite length ([3]; low stiffness (4.3 kPa) matrix): 146 μm
reduction in cell number compared to untreated cells ([3]; stiff matrix (28.1 kPa), 1000 nM CARD-024, not significant): 50%
focal adhesions (vinculin staining) [4]: inhibited focal adhesion maturation
αSMA expression [5]: repressed αSMA expression on the high stiffness substrate to levels indistinguishable from the low stiffness substrate
FAK phosphorylation [6]: inhibited FAK phosphorylation
MLCK expression [7]: significantly repressed MLCK expression to levels comparable to untreated cells on the low stiffness substrate
ET-1 expression [8]: significantly repressed ET-1 expression in high stiffness conditions to levels indistinguishable from low stiffness conditions
PTGS2 expression [9]: induced PTGS2 at both low and high stiffness
induction of IL-1β expression ([10]; high stiffness, p=0.002): 1.8 fold
induction of IL-1β expression ([10]; low stiffness): 4 fold
colA1 expression [11]: did not repress
Fn-1 expression [12]: did not repress
